Assay [1] has as its system β-catenin-TCF-mediated reporter transcription activity in Colo 205 cells. In words: Colo 205 reporter assay (TCF/LEF luciferase). To be noted: five hours after addition of compound. Type of assay: cell-based. In a few lines:
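Luciferase signal from a TCF/LEF-driven reporter, stably integrated in Colo 205 colon cancer cells, was measured 5 h after compound addition.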

Assay [2] deals with HEK293 membranes over-expressing WFS-1 (Homo sapiens (Human), UniProt O76024). Put plainly: Radioligand displacement assay (tritiated Compound 136 probe). The conditions noted are these: displacement of tritiated Compound 136. Type of assay: binding. In a few lines:
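WFS-1-overexpressing HEK293 membranes were preincubated 10 min with compound, then tritiated probe was added for 90 min at room temperature. Bound probe was collected by filtration on PEI-pretreated GF/B filters, washed and scintillation-counted. IC50 came from a 3-parameter fit of bound probe vs compound concentration.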

Where [3] appears, read: Homo sapiens, COLO 205, 5 h, Colo 205 TCF/LEF luciferase reporter, read-out: TCF reporter Colo205 IC50.

Read-outs that look alike come from different tables or passages of the source. Some results are limits rather than exact numbers.

Sequence of HEK293 membranes over-expressing WFS-1 (O76024 whole entry): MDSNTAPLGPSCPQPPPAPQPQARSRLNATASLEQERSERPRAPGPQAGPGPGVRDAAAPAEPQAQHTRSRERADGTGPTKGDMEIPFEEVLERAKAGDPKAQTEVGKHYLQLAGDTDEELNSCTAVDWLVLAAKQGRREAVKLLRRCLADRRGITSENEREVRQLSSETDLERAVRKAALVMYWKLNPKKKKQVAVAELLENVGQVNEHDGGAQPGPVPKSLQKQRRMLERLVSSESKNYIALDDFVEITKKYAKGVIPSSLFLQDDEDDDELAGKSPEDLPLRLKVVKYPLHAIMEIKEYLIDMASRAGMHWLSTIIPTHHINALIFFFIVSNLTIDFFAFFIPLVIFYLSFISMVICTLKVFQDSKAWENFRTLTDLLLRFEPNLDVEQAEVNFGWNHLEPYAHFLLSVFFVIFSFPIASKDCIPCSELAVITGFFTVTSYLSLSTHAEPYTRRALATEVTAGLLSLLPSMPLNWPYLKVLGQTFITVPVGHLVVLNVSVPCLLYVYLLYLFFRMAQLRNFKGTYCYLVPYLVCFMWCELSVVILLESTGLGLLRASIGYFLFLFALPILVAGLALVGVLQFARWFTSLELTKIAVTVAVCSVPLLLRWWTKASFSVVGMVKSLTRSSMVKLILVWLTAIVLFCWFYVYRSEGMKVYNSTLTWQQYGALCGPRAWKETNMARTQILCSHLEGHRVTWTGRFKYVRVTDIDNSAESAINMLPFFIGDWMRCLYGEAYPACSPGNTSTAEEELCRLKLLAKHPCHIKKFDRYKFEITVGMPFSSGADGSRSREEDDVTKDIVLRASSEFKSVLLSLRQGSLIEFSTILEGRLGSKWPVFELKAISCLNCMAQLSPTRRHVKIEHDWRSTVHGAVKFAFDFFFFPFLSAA

Take `Cc1nc(NCc2cnn(CCC3CCOCC3)c2)nc2c1NC(=O)[C@H](C)N2C` [Compound 115, (7S)-4,7,8-trimethyl-2-(((1-(2-(tetrahydro-2H-pyran-4-yl)ethyl)-1H-pyrazol-4-yl)methyl)amino)-7,8-dihydropteridin-6(5H)-one]: the IC50 lay in the range of 1000 to 5000 nM in assay [1] (setting [3]) and 600 to 3000 nM in assay [2].
Turning to `Cc1nc(NCc2cnn(Cc3ccc(C(F)(F)F)cc3)c2)nc2c1NC(=O)[C@H](C)N2C` [Compound 149, (7S)-4,7,8-trimethyl-2-(((1-(4-(trifluoromethyl)benzyl)-1H-pyrazol-4-yl)methyl)amino)-7,8-dihydropteridin-6(5H)-one], the IC50 was under 300 nM in assay [1] (setting [3]) and 60 to 600 nM in assay [2].
As to `Cc1ncc(Cn2cc(CNc3nc(C)c4c(n3)N(C)[C@@H](C(C)C)C(=O)N4)cn2)cc1F` [Compound 425, (7S)-2-(((1-((5-fluoro-6-methylpyridin-3-yl)methyl)-1H-pyrazol-4-yl)methyl)amino)-7-isopropyl-4,8-dimethyl-7,8-dihydropteridin-6(5H)-one], the IC50 was under 300 nM in assay [1] (setting [3]) and 60 to 600 nM in assay [2].
`Cc1nc(N[C@H]2C[C@H](Oc3ccc(F)cc3)C2)nc2c1N(C)C(=O)[C@H](C)N2C` [Compound 250, (7S)-2-((trans-3-(4-fluorophenoxy)cyclobutyl)amino)-4,5,7,8-tetramethyl-7,8-dihydropteridin-6(5H)-one]: the IC50 in assay [1] (setting [3]) was in the range of 300 to 1000 nM; in assay [2] it was 60 to 600 nM.
As for `Cc1nc(NCc2cnn(Cc3cc(C(F)(F)F)nn3C)c2)nc2c1NC(=O)[C@H](C(C)C)N2C` [Compound 397, (7S)-7-Isopropyl-4,8-dimethyl-2-(((1-((1-methyl-3-(trifluoromethyl)-1H-pyrazol-5-yl)methyl)-1H-pyrazol-4-yl)methyl)amino)-7,8-dihydropteridin-6(5H)-one], the IC50 in assay [1] (Homo sapiens, COLO 205, 5 h, Colo 205 cells with stably transfected TCF/LEF luciferase reporter, read-out: TCF reporter Colo205) was under 300 nM; in assay [2], 60 to 600 nM.
As for `Cc1nc(NCc2cnn(Cc3ccc(F)cc3)c2)nc2c1N(C)C(=O)[C@H](C)N2C` [Compound 1, (7S)-2-(((1-(4-fluorobenzyl)-1H-pyrazol-4-yl)methyl)amino)-4,5,7,8-tetramethyl-7,8-dihydropteridin-6(5H)-one], the IC50 in assay [1] (setting [3]) was under 300 nM; in assay [2], 60 to 600 nM.
For the molecule `Cc1nc(NCc2cnn(Cc3ccc(F)cc3)c2)nc2c1NC(=O)C1(CC1)N2` [Compound 222, 2′-(((1-(4-fluorobenzyl)-1H-pyrazol-4-yl)methyl)amino)-4′-methyl-5′,8′-dihydro-6′H-spiro[cyclopropane-1,7′-pteridin]-6′-one], the values for the IC50 in assay [1] (setting [3]) and in assay [2] were at least 5000 nM and 600 to 3000 nM, respectively.
On the same counts, the results for `Cc1nc(NCc2cnn(C[C@H](C)c3ccc(F)cc3)c2)nc2c1NC(=O)[C@H](C)N2C` [Compound 96, (7S)-2-(((1-((R)-2-(4-fluorophenyl)propyl)-1H-pyrazol-4-yl)methyl)amino)-4,7,8-trimethyl-7,8-dihydropteridin-6(5H)-one] are under 300 nM and under 60 nM.
Regarding `Cc1nc(N[C@H]2C[C@H](Oc3ccnc(C(F)(F)F)c3)C2)nc2c1NC(=O)[C@H](C)N2C` [Compound 335, (7S)-4,7,8-trimethyl-2-((trans-3-((2-(trifluoromethyl)pyridin-4-yl)oxy)cyclobutyl)amino)-7,8-dihydropteridin-6(5H)-one], the results for the IC50 in assay [1] (setting [3]) and in assay [2] were under 300 nM and under 60 nM, respectively.
Turning to `Cc1nc(NCc2cnn(Cc3ccc(C(F)(F)F)nc3)c2)nc2c1NC(=O)[C@H](C1CC1)N2C` [Compound 386, (7S)-7-Cyclopropyl-4,8-dimethyl-2-(((1-((6-(trifluoromethyl)pyridin-3-yl)methyl)-1H-pyrazol-4-yl)methyl)amino)-7,8-dihydropteridin-6(5H)-one], the IC50 in assay [1] (setting [3]) was under 300 nM; in assay [2], 60 to 600 nM.
Turning to “(7S)-4,7,8-trimethyl-2-((trans-3-(3,4-difluorophenoxy)cyclobutyl)amino)-7,8-dihydropteridin-6(5H)-one [Compound 251]”, the IC50 in assay [1] (Colo 205 TCF/LEF luciferase reporter, read-out: TCF reporter Colo205 IC50) lay in the range of 300 to 1000 nM; in assay [2], 60 to 600 nM.
Turning to `Cc1nc(NCc2cn(Cc3ccc(C(F)(F)F)nc3)nc2Br)nc2c1NC(=O)[C@H](C)N2C` [Compound 412, (S)-2-(((3-bromo-1-((6-(trifluoromethyl)pyridin-3-yl)methyl)-1H-pyrazol-4-yl)methyl)amino)-4,7,8-trimethyl-7,8-dihydropteridin-6(5H)-one], the IC50 in assay [1] (setting [3]) is under 300 nM; in assay [2], under 60 nM.
Regarding `Cc1nc(NCc2cnn(CC(C)(O)c3ccc(F)cc3)c2)nc2c1NC(=O)[C@H](C)N2C` (stereo partly drawn) [Compound 128, (7S)-2-(((1-(2-(4-fluorophenyl)-2-hydroxypropyl)-1H-pyrazol-4-yl)methyl)amino)-4,7,8-trimethyl-7,8-dihydropteridin-6(5H)-one], the IC50 is 1000 to 5000 nM in assay [1] (setting [3]) and at least 3000 nM in assay [2].
The corresponding values for `Cc1nc(N[C@H]2C[C@H](Sc3ccc(F)cc3)C2)nc2c1N(C)C(=O)[C@H](C)N2C` [Compound 307, (7S)-2-((trans-3-((4-fluorophenyl)thio)cyclobutyl)amino)-4,5,7,8-tetramethyl-7,8-dihydropteridin-6(5H)-one] are 1000 to 5000 nM and 60 to 600 nM.
The corresponding values for `Cc1nc(NCc2cnn([C@H]3CCN(C4CCC(F)(F)CC4)C3)c2)nc2c1NC(=O)[C@H](C)N2C` [Compound 142, (7S)-2-(((1-((S)-1-(4,4-difluorocyclohexyl)pyrrolidin-3-yl)-1H-pyrazol-4-yl)methyl)amino)-4,7,8-trimethyl-7,8-dihydropteridin-6(5H)-one] are 300 to 1000 nM and 60 to 600 nM.
For the molecule `Cc1nc(N[C@H]2C[C@@H](COc3ccc(C(F)(F)F)cn3)C2)nc2c1NC(=O)[C@H](C)N2C` [Compound 356, (7S)-4,7,8-trimethyl-2-((cis-3-(((5-(trifluoromethyl)pyridin-2-yl)oxy)methyl)cyclobutyl)amino)-7,8-dihydropteridin-6(5H)-one], the IC50 in assay [1] (setting [3]) was 300 to 1000 nM; in assay [2] it was 600 to 3000 nM.
Regarding `COc1cc(F)ccc1Cn1cc(CNc2nc(C)c3c(n2)N(C)[C@@H](C)C(=O)N3)cn1` [Compound 83, (7S)-2-(((1-(4-fluoro-2-methoxybenzyl)-1H-pyrazol-4-yl)methyl)amino)-4,7,8-trimethyl-7,8-dihydropteridin-6(5H)-one], the IC50 was under 300 nM in assay [1] (setting [3]) and under 60 nM in assay [2].
As to `Cc1cnc(C(F)(F)F)nc1-n1cc(CNc2ncc3c(n2)N(C)[C@@H](C)C(=O)N3)cn1` [Compound 164, (7S)-7,8-dimethyl-2-(((1-(5-methyl-2-(trifluoromethyl)pyrimidin-4-yl)-1H-pyrazol-4-yl)methyl)amino)-7,8-dihydropteridin-6(5H)-one], the figures for the IC50 in assay [1] (setting [3]) and in assay [2] were 1000 to 5000 nM and 60 to 600 nM, respectively.
The corresponding values for `Cc1nc(NCc2cnn([C@@H]3CCN(c4ccc(F)cc4)C3)c2)nc2c1NC(=O)[C@H](C)N2C` [Compound 170, (7S)-2-(((1-((R)-1-(4-fluorophenyl)pyrrolidin-3-yl)-1H-pyrazol-4-yl)methyl)amino)-4,7,8-trimethyl-7,8-dihydropteridin-6(5H)-one] are under 300 nM and 60 to 600 nM.
On to `CCOc1ccc(CCn2cc(CNc3ncc4c(n3)N(C)[C@@H](C)C(=O)N4)cn2)cc1` [Compound 121, (7S)-2-(((1-(4-ethoxyphenethyl)-1H-pyrazol-4-yl)methyl)amino)-7,8-dimethyl-7,8-dihydropteridin-6(5H)-one], for which the IC50 is 1000 to 5000 nM in assay [1] (setting [3]) and 60 to 600 nM in assay [2].
As for `Cc1nc(NCc2cnn(CCc3ccc(F)cc3)c2)nc2c1N(C)C(=O)[C@H](C)N2C` [Compound 8, (7S)-2-(((1-(4-fluorophenethyl)-1H-pyrazol-4-yl)methyl)amino)-4,5,7,8-tetramethyl-7,8-dihydropteridin-6(5H)-one], the values for the IC50 in assay [1] (setting [3]) and in assay [2] were 300 to 1000 nM and 600 to 3000 nM, respectively.
Turning to `Cc1nc(NCc2cnn(Cc3ccnc(C(F)(F)F)c3)c2)nc2c1NC(=O)[C@H](C)N2C` [Compound 207, (7S)-4,7,8-trimethyl-2-(((1-((2-(trifluoromethyl)pyridin-4-yl)methyl)-1H-pyrazol-4-yl)methyl)amino)-7,8-dihydropteridin-6(5H)-one], the IC50 in assay [1] (setting [3]) is under 300 nM; in assay [2], 60 to 600 nM.
Take `Cc1nc(N[C@H]2C[C@@H](Oc3cc(F)c(F)c(F)c3)C2)nc2c1NC(=O)[C@H](C)N2C` [Compound 247, (7S)-4,7,8-trimethyl-2-((cis-3-(3,4,5-trifluorophenoxy)cyclobutyl)amino)-7,8-dihydropteridin-6(5H)-one]: the IC50 in assay [1] (setting [3]) is 1000 to 5000 nM; in assay [2] it was 60 to 600 nM.
As for `Cc1nc(NCc2cnn(Cc3cc(C(F)(F)F)nn3C)c2)nc2c1NC(=O)[C@H](C1CC1)N2C` [Compound 396, (7S)-7-Cyclopropyl-4,8-dimethyl-2-(((1-((1-methyl-3-(trifluoromethyl)-1H-pyrazol-5-yl)methyl)-1H-pyrazol-4-yl)methyl)amino)-7,8-dihydropteridin-6(5H)-one], the results for the IC50 in assay [1] (setting [3]) and in assay [2] were under 300 nM and 60 to 600 nM, respectively.
With `Cc1nc(N[C@H]2C[C@H](Oc3ccc(F)nc3)C2)nc2c1NC(=O)[C@H](C)N2C` [Compound 357, (7S)-2-((trans-3-((6-fluoropyridin-3-yl)oxy)cyclobutyl)amino)-4,7,8-trimethyl-7,8-dihydropteridin-6(5H)-one], the results for the IC50 in assay [1] (setting [3]) and in assay [2] were 1000 to 5000 nM and 60 to 600 nM, respectively.

For the origin of these results see patent publication US20230312587A1, “PTERIDINONE COMPOUNDS AND USES THEREOF” (Vertex Pharmaceutical Incorporated, priority 2018, published 2023).
